Test results taken from publication PMC9652805, “Design, synthesis and evaluation of novel 1,2,4-triazole derivatives as promising anticancer agents” (BMC Chemistry, 2022).

How the values were obtained:
[1] = system: A549 cells (human lung cancer cell line); assay: MTT cytotoxicity assay, A549; assay type: cell-based; conditions: mean ± SEM
Experimental: (§1) Cell cultures were obtained from the human lung cancer cell line (A549), human cervical cancer cell line (Hela), human breast cancer cell line (MCF-7) and Normal cells isolated from human lung tissue (MRC-5) taken from the National Cell Bank of Iran (NCBI, Pasteur Institute, Tehran, Iran). All cells were cultured in RPMI-1640 medium supplemented with 10% FBS, antibiotics (penicillin 100 U/mL, streptomycin 100 µg/mL), at 37 °C in a humidified atmosphere containing 5% CO2.
(§2) Cytotoxic activities of all the synthesized compounds were assessed by standard 3-(4,5-dimethylthiazol-yl)-2,5-diphenyl-tetrazolium bromide (MTT) assay. The assay was performed according to a known protocol. The cells were seeded and plated in 96-well microplates at a density of 1 × 10^4 cells per well in 180 μL complete culture media. After 24 h incubation, the cells were treated with […] of different concentrations of synthesized compounds ranging from 1 × 10^–4 to 1 × 10^–7 M at identical conditions in triplicates. After 72 h, media were replaced with 150 μL media containing 0.5 mg/mL of MTT solution [57]. The plates were incubated at 37 °C for additional four hours. Then, media containing MTT were discarded and 150 μL dimethylsulfoxide (DMSO, > 99%) was added to each well to dissolve the formazan crystals.

[2] = system: MRC-5 cells (normal cells from human lung tissue); assay: MTT cytotoxicity assay, MRC-5 normal cell line (safety); assay type: cell-based; conditions: mean ± SEM
Experimental: as §1, §2

[3] = system: Hela cells (human cervical cancer cell line); assay: MTT cytotoxicity assay, Hela; assay type: cell-based; conditions: 72 h, mean ± SEM
Experimental: as §1, §2

[4] = system: MCF-7 cells (human breast cancer cell line); assay: MTT cytotoxicity assay, MCF-7; assay type: cell-based; conditions: mean ± SEM
Experimental: as §1, §2

SMILES | IC50 ([1]; Homo sapiens, A549, 72 h) [µM] | IC50 ([2]; Homo sapiens, MRC5, 72 h) [µM] | IC50 ([3]; Homo sapiens, HeLa) [µM] | IC50 ([4]; Homo sapiens, MCF7, 72 h) [µM] | melting point [°C] | IC50 ([1]; 72 h) [µM] | IC50 ([2]; 72 h) [µM] | IC50 [3] [µM] | IC50 ([4]; 72 h) [µM]
O=C(c1ccccc1)C(c1ccccc1)C(C(=O)c1ccc(Cl)cc1Cl)n1cncn1 (stereo not drawn) [10 k, 1-(2,4-dichlorophenyl)-3,4-diphenyl-2-(1H-1,2,4-triazol-1-yl) butane-1,4-dione] | 102 ± 5.2 | 148 ± 6.1 | 121 ± 6.8 | 44.1 ± 7.6 | 178 to 181 | – | – | – | –
N.N.[Cl][Pt][Cl] [Cis platin, reference compound] | – | – | – | – | – | 14.8 ± 0.27 | 45.2 ± 2.5 | 12.3 ± 3.3 | 36.5 ± 1.9
O=C(c1ccccc1)C(c1ccccc1)C(C(=O)c1ccc(F)cc1F)n1cncn1 (stereo not drawn) [Compound 10j, 1-(2,4-difluorophenyl)-3,4-diphenyl-2-(1H-1,2,4-triazol-1-yl) butane-1,4-dione] | 101 ± 1.8 | 101 ± 1.3 | 12.3 ± 1.9 | 45.4 ± 3.2 | 114 to 117 | – | – | – | –
O=C(CC(C(=O)c1ccc(Br)cc1)n1cncn1)c1ccc(Cl)cc1 (stereo not drawn) [Compound 10d, 1-(4-bromophenyl)-4-(4-chlorophenyl)-2-(1H-1,2,4-triazol-1-yl) butane-1,4-dione] | 16.5 ± 2.6 | 42.8 ± 2.1 | < 12 | 10.2 ± 2.1 | 162 to 165 | – | – | 9.8 ± 1.7 | –
O=C(c1ccccc1)C(c1ccccc1)C(C(=O)c1ccccc1)n1cncn1 (stereo not drawn) [Compound 10f, 4-triphenyl-3-(1H-1,2,4-triazol-1-yl) butane-1,4-dione] | 114 ± 7.6 | 289 ± 10.2 | 82.7 ± 5.8 | 134 ± 4.5 | 185 to 188 | – | – | – | –
O=C(CC(C(=O)c1ccc(Br)cc1)n1cncn1)c1ccccc1 (stereo not drawn) [Compound 10c, 1-(4-bromophenyl)-4-phenyl-2-(1H-1,2,4-triazol-1-yl) butane-1,4-dione] | 104 ± 1.3 | 57.8 ± 1.7 | 32.4 ± 6.9 | 17.3 ± 5.4 | 149 to 151 | – | – | – | –
O=C(CC(C(=O)c1ccc(Cl)cc1Cl)n1cncn1)c1ccccc1 (stereo not drawn) [Compound 10e, 1-(2,4-dichlorophenyl)-4-phenyl-2-(1H-1,2,4-triazol-1-yl) butane-1,4-dione] | 104 ± 5.9 | 104 ± 7.3 | 31.6 ± 4.2 | 45.4 ± 6.5 | 153 to 156 | – | – | – | –
c1ccc(CC(Cc2ccccc2)n2cncn2)cc1 [Compound 8a, 1-(1,3-diphenylpropan-2-yl)-1H-1,2,4-triazole] | 127 ± 4.9 | 279.1 ± 2.5 | 142 ± 2.1 | 158 ± 3.5 | 81 to 83 | – | – | – | –
O=C(c1ccccc1)C(c1ccccc1)C(C(=O)c1ccc(Br)cc1)n1cncn1 (stereo not drawn) [Compound 10i, 1-(4-bromophenyl)-3,4-diphenyl-2-(1H-1,2,4-triazol-1-yl) butane-1,4-dione] | 135 ± 5.3 | 218 ± 3.2 | 59.3 ± 2.7 | 72.2 ± 6.5 | 168 to 171 | – | – | – | –
O=C(c1ccc(Br)cc1)C(C(c1ccccc1)c1ccccc1)n1cncn1 (stereo not drawn) [Compound 7d, 1-(4-bromophenyl)-3,3-diphenyl-2-(1H-1,2,4-triazol-1-yl) propan-1-one] | 43.4 ± 4.5 | 35.6 ± 2.7 | < 12 | 9.8 ± 0.9 | 110 to 113 | – | – | 12.1 ± 3.6 | –
